Where a name gives a salt, the structure may show the parent alone. ± gives the uncertainty stated by the source.
How the values were obtained:
THP-1 = assay: efficacy of IL-8 induction relative to DMSO (% activity); higher = stronger induction; conditions: exposure time: 18 h
[1] = tested on: lysine peptide Ac-RFAAKAA-COOH; assay: efficacy of lysine peptide change (negative = depletion) (% activity); higher = less depletion; conditions: incubation time: 24 h
[2] = tested on: cysteine peptide Ac-RFAACAA-COOH; assay: efficacy of cysteine peptide change (negative = depletion) (% activity); higher = less depletion; conditions: incubation time: 24 h
[3] = tested on: KeratinoSens (HaCaT ARE-luciferase) cells; assay: efficacy of ARE luciferase induction relative to DMSO (% activity over DMSO); higher = stronger induction; conditions: exposure time: 24 h

Row | SMILES | efficacy of IL-8 induction (THP-1) | efficacy of lysine peptide change [1] | efficacy of cysteine peptide change [2] | efficacy of ARE luciferase induction [3]
1 | CC(=O)C1(C)CC2=C(CCCC2(C)C)CC1C (configuration not stated) | 5.26 ± 9.1 | 3.3 ± 5.7 | -16.5 ± 5.3 | 13.2 ± 8.8
2 | CC(C)CC(NC(=O)OCC1c2ccccc2-c2ccccc21)C(=O)O (stereo in doubt) [N-(9-Fluorenylmethoxycarbonyl)-L-leucine] | 6.39 ± 11 | 0.13 ± 15 | -6.72 ± 6 | 65 ± 53
3 | c1ccc(-c2cccc(-c3ccccc3)c2)cc1 [1,1':3',1''-Terphenyl] | 9.01 ± 8.6 | 7.59 ± 13 | -4.8 ± 8.3 | 21.9 ± 16
4 | c1ccc(SCCSc2ccccc2)cc1 [1,2-Bis(phenylthio)ethane] | 0 | -9.19 ± 10 | 3.83 ± 6.6 | 40.6 ± 11
5 | O=[N+]([O-])c1cc([N+](=O)[O-])c2ccccc2c1 [1,3-Dinitronaphthalene] | 0 | -15.1 ± 14 | -32.4 ± 17 | 29.3 ± 10
6 | CCC(=O)C=Cc1ccc(OC)cc1 [1-(4-Methoxyphenyl)-1-pentene-3-one] | 0 | 29.4 ± 1.8 | -4.91 ± 8.5 | -11.5 ± 51
7 | CC(C)(C)C(=O)CCl [1-Chloro-3,3-dimethyl-butan-2-one] | 5.09 ± 4.6 | -4.45 ± 16 | -43.1 ± 7.6 | 26.8 ± 9.2
8 | CCCCCCCCCCCCO [1-Dodecanol] | 0 | -9.21 ± 17 | 0 | 9.49 ± 13
9 | c1ccc(-c2ccccn2)nc1 [2,2'-Dipyridyl] | 0 | -0.86 ± 12 | -15.1 ± 3.5 | 45.2 ± 39
10 | Nc1ccc(Cl)cc1Cl [2,4-Dichloroaniline] | 8.9 ± 7.7 | 6.42 ± 18 | 0 | 3.01 ± 5.2
11 | CC(C)c1ccc2cc(C(C)C)ccc2c1 [2,6-Diisopropylnaphthalene] | 2.46 ± 4.3 | 1.65 ± 26 | 7.33 ± 6.5 | 28.7 ± 11
12 | CCCCCCCCCCCCOCCO [2-(Dodecyloxy)ethanol] | -3.05 ± 5.3 | 3.27 ± 16 | 73.8 | 8.82 ± 15
13 | Oc1ccc(-c2ccccc2)cc1Cl [2-Chloro-4-phenylphenol] | 3.65 ± 6.3 | 3.75 ± 3.3 | 0.73 ± 13 | 22.4 ± 9.2
14 | CCCCCCC(C)O (configuration not stated) [2-Octanol] | 0 | -5.58 ± 9.7 | 0 | 0
15 | CCCCOCCOCCOCCO [2-[2-(2-Butoxyethoxy)ethoxy]ethanol] | 3.34 ± 5.8 | 207 ± 33 | 37.2 ± 7.3 | 75.4 ± 120
16 | COc1ccc(O)c(C(C)(C)C)c1 [2-tert-Butyl-4-methoxyphenol] | 1.96 ± 3.4 | 5.8 ± 5 | -37.3 ± 14 | 4.91 ± 25

Row | SMILES | efficacy of IL-8 induction (THP-1) | efficacy of lysine peptide change [1] | efficacy of cysteine peptide change [2] | efficacy of ARE luciferase induction [3]
17 | CCCCCCCCCCC=CC1CC(=O)OC1=O (configuration not stated) [3-(Dodecenyl)dihydro-2,5-furandione] | -1.83 ± 3.2 | -22.7 ± 13 | 0 | 3.3 ± 5.7
18 | CC(C)(C)c1ccc(C(=O)CCCCl)cc1 [4'-Tert-butyl-4-chlorobutyrophenone] | 0 | 17.7 ± 16 | 94.9 | 38.6 ± 9.4
19 | CCCCCCOc1ccc(O)cc1 [4-(Hexyloxy)phenol] | 0.98 ± 10 |  |  | 20 ± 18
20 | Nc1ccc(-c2ccccc2)cc1 [4-Biphenylamine hydrochloride] | 0 | -3.96 ± 11 | -6.9 ± 6 | 12.3 ± 11
21 | COc1ccc2[nH]cc(CCN(C(C)C)C(C)C)c2c1 [5-Methoxy-N,N-diisopropyltryptamine hydrochloride] | 1.45 ± 2.5 | 138 ± 57 | -5.5 ± 9.5 | 19.1 ± 7.6
22 | O=C(O)c1ccc(=O)[nH]c1 [6-Hydroxynicotinic acid] | 0 | -6.78 ± 17 | 12.2 ± 12 | 27.8 ± 30
23 | CC(C)c1ccc2oc3nc(N)c(C(=O)O)cc3c(=O)c2c1 [Amlexanox] | 8.52 ± 7.4 | 7.32 ± 13 | 4.82 ± 8.3 | 28.6 ± 29
24 | CCc1oc2ccccc2c1C(=O)c1cc(I)c(O)c(I)c1 [Benziodarone] | 0 | -10.2 ± 9.7 | -8.72 ± 7.7 | 17.7 ± 22
25 | CC(=O)Oc1ccc(C(c2ccc(OC(C)=O)cc2)c2ccccn2)cc1 [Bisacodyl] | 0 | 26.8 ± 7.9 | 3.97 ± 6.9 | 30.5 ± 18
26 | CCC(C)(c1ccc(O)cc1)c1ccc(O)cc1 [Bisphenol B] | 9.18 ± 8.1 | 31.9 ± 11 | 2.81 ± 4.9 | 38.7 ± 21
27 | CCCCCCCC(=O)Oc1c(Br)cc(C#N)cc1Br [Bromoxynil octanoate] | 0 | -17.8 ± 10 | -2.83 ± 4.9 | 2.61 ± 12
28 | C=C(C)C(=O)Nc1ccc(Cl)c(Cl)c1 [Chloranocryl] | 1.33 ± 7.2 | 82.1 ± 16 | 4.33 ± 7.5 | 23.2 ± 7
29 | O=C(O)c1cn(C2CC2)c2cc(N3CCNCC3)c(F)cc2c1=O [Ciprofloxacin] | 0 | -2.18 ± 19 | 8.17 ± 8.2 | 14.6 ± 25
30 | C#CCN(C)CCCOc1ccc(Cl)cc1Cl [Clorgyline hydrochloride] | 0 | 20.7 ± 22 | 42.2 ± 21 | 43.6 ± 25
31 | O=C(O)CCCCCCCCC(=O)O [Decanedioic acid] | 0.59 ± 6 | 3.76 ± 20 | 54.5 | 5.23 ± 4.5
